Columns and labels:
[1] = system: bone marrow-derived dendritic cells (including both cDCs and pDCs); experiment: Test 1 (A) TNF-α gene expression in bone marrow-derived dendritic cells (real-time PCR); type: cell-based, mouse; conditions: test substance 10 μg/mL, 72 hours; TNF-α/β-actin, control with no test substance set to 1
Protocol: After dissection of a C57BL/6J mouse (8 weeks old), bone marrow mononuclear cells were sampled from the femur and tibia, and cultured using a differentiation induction medium (RPMI 1640 medium containing 10% fetal bovine serum, 100 μM of 2-mercaptoethanol, and 100 ng/ml of Flt3 ligand). […] After the medium was removed from each well, 100 μL of a differentiation induction medium containing 0.5% DMSO, which was prepared so that a total concentration of the test substances was 10 μg/mL (for young barley leaf juice powder, the concentration of young barley leaf juice ingredient excluding dextrin was 10 μg/mL), was added to each well and cultured for 72 hours. After that, the medium was removed from each well, and RNA was collected using the RNeasy Mini Kit (manufactured by QIAGEN). From the obtained RNA, a gene expression level (mRNA expression level) of TNF-α was measured by the real-time PCR method using the One Step TB Green® PrimeScript™ RT-PCR Kit II <Perfect Real Time> (manufactured by TaKaRa). For a primer, Mm_Il12B_1_SG QuantiTect Primer Assay and Mm_Tnf1_SG QuantiTect Primer Assay (manufactured by QIAGEN) were used.

NK cells = experiment: Test 3 NK cell cytotoxicity of spleen cells against calcein-stained YAC-1 target cells; type: cell-based, mouse; conditions: test substance 1 μg/mL, 18 hours, then YAC-1 target cells 4 hours, control set to 1
Protocol: After dissection of a C57BL/6J mouse (8 weeks old), spleen cells were isolated, and a cell suspension prepared by dilution in a 10% fetal bovine serum-RPMI 1640 medium was seeded at 100 µL/well so that the cells were seeded at 5×10^6 cells/well in a 96-well plate. To the seeded cells, a medium (0.5% DMSO-10% fetal bovine serum-RPMI 1640 medium) prepared to have a total concentration of test substances of 1 μg/mL (for young barley leaf juice powder, the concentration of young barley leaf juice ingredient excluding dextrin was 1 μg/mL) was added at 100 μL/well, and the resultant was cultured for 18 hours in a 5% CO2 incubator (“CO2 Incubator” manufactured by ASTEC) at 37° C.
After culture, the plate was centrifuged (at 1,000 rpm for 10 minutes) using a centrifuge. 150 μL of the supernatant was removed, and 150 μL of 1% BSA-RPMI 1640 was added. This process was repeated once more. After that, YAC-1 cells (stained with calcein) sensitive to NK cells were added as target cells, and the resultant was cultured for 4 hours.
After culture, the plate was centrifuged (at 1,000 rpm for 10 minutes) using a centrifuge, and the supernatant was collected in a 96-well black plate. The collected supernatant was measured for fluorescence intensity (at an excitation wavelength of 490 nm and a fluorescence wavelength of 515 nm) using a microplate reader (“SpectraMax i3x” manufactured by Molecular Devices), and the NK cell cytotoxicity was evaluated.
The NK cell cytotoxicity (relative value) is shown in Table 5 with the value of the control set to 1. A higher relative value of NK cell cytotoxicity indicates greater activation of NK cells. […] Even if dietary fiber (cellulose), Vitamin D, or Spirulina, which are known to have immune-stimulating effects, was added, the NK cells were not activated.

Compound	TNF-α gene expression level (relative value) [1]	NK cell cytotoxicity (relative value) (NK cells)	NK cell cytotoxicity (relative value) (NK cells; listed as Comparative Example 4)	NK cell cytotoxicity (relative value) (NK cells; listed as Comparative Example 5)
β-glucan [compound 3]	1.17	1.04	–	–
Cellulose [compound 1]	–	not activated	1.05	–
C=C1CC[C@H](O)C/C1=C/C=C1\CCC[C@]2(C)[C@@H]([C@H](C)CCCC(C)C)CC[C@@H]12 [compound 2, Vitamin D3]	–	not activated	–	0.93
